The values below come from patent publication US20250215467A1, “L-THREONINE TRANSALDOLASES AND USES THEREOF” (University of Delaware, priority 2022, published 2025).

In test [1] the test system is ObiH. As to the kind of experiment: TTA-ADH coupled assay, ObiH screened on aromatic aldehyde substrates. In kind it is biochemical, Pseudomonas fluorescens. The settings on record: 0.25-1 mM aldehyde, 100 mM L-Thr, 0.25 μM purified TTA, 30° C. As to the method:
(§1) High-throughput screening of purified TTAs was performed with a TTA-ADH coupled assay using purified TTA and commercially available alcohol dehydrogenase from S. cerevisiae purchased from MilliporeSigma. Aldehyde stocks were prepared in 50-100 mM solutions in DMSO or acetonitrile. Reaction mixtures were prepared in a 96-well plate with 100 μL of 100 mM phosphate buffer pH 7.5, 0.5 mM NADH, 0.4 mM PLP, 15 mM MgCl2, and 100 mM L-Thr with the addition of 0.25 mM to 1 mM aldehyde depending on the background absorbance at 340 nm (Table 4), 10 U ScADH, and 0.25 μM purified TTA unless otherwise specified. Reactions were initiated with the addition of enzyme. […] The following controls were included for every assay: reaction mixture without aldehyde, without TTA, and without enzyme (TTA or ADH). Rates were calculated by identifying the linear region at the beginning of the kinetic run and converting the depletion in absorbance to the depletion of mM NADH using an NADH standard curve.
To expand our understanding of the TTA enzyme class, we wanted a high-throughput method for rapid screening of multiple enzymes and candidate aldehyde substrates. We began by analyzing a previously reported coupled enzyme assay (FIG. 2a) based on the addition of alcohol dehydrogenase (ADH), which consumes NADH to reduce the co-product acetaldehyde in a manner that can be monitored at 340 nm. Unfortunately, this coupled assay for TTA activity suffers from false positives and confounding variables which we sought to address. […] Second, the characterized TTAs are known to catalyze the decomposition of L-Thr in the absence of an aldehyde substrate, which is an undesired reaction that also generates an acetaldehyde co-product. Another limitation of the TTA-ADH coupled assay is that many of the aromatic aldehyde candidate substrates absorb at the same measurement wavelength (Table 4). Thus, we minimized the impact of the false positives, spectral overlap, and other confounding variables by tuning enzyme and aldehyde concentrations and monitoring the undesired reactions with two controls: (1) lacking aldehyde substrate (“L-Thr”) and (2) lacking TTA (“no TTA”) where only the ADH and substrate are present. Then, we validated the TTA-ADH coupled assay by performing HPLC analysis, using the chemically synthesized β-OH-nsAA standard for the assumed product from 3, over a time course where we observed that the addition of the ScADH improves reaction rates three-fold. As previously reported by others, we were also able to improve β-OH-nsAAs yields when using the ScADH coupled to a co-factor regeneration system. As the last step of verification, we screened the TTA-ADH coupled assay with ObiH before and after photo-treatment, we observed no differences in reaction rate and continued to assay the TTAs without photo-treatment.
Upon assay validation, we hypothesized that we could rapidly probe the activity of ObiH on diverse aldehydes to expand the potential chemical handles of β-OH-nsAAs. We successfully screened ObiH against 16 unique substrates in a single experiment (FIGS. 2b,c). […] Our screen included nine substrates not previously tested with ObiH to our knowledge; activity on seven of these substrates was confirmed with new peak formation via HPLC or LC-MS (FIGS. 3-14). The new substrates include aldehydes that contain amines, conjugatable handles, or larger hydrophobic groups to improve the chemical diversification of β-OH-nsAA products. Our result supported the known general trend that aldehydes containing electron-withdrawing ring substituents are the preferred substrates of ObiH. As expected, the amine-aldehydes were very poor substrates for ObiH, which we hypothesize is because of the strong electron-donating potential of amines. Additionally, one amine-containing substrate (5) absorbed at 340 nm, so it was only tested at low concentrations of 0.25 mM aldehyde (Table 4). […]

The nature of test [2]: In vitro assay over 20 h with HPLC analysis (amino acid substrate specificity, diastereomeric excess). In kind it is biochemical. As to the method:
Metabolites of interest were quantified via high-performance liquid chromatography (HPLC) using an Agilent 1260 Infinity model equipped with a Zorbax Eclipse Plus-C18 column. To quantify aldehyde and β-OH-nsAAs, an initial mobile phase of solvent A/B=95/5 was used (solvent A, water+0.1% TFA; solvent B, acetonitrile+0.1% TFA) and maintained for 5 min. A gradient elution was performed (A/B) as follows: gradient from 95/5 to 50/50 for 5-12 min, gradient from 50/50 to 0/100 for 12-13 min, and gradient from 0/100 to 95/5 for 13-14 min. A flow rate of 1 mL min-1 was maintained, and absorption was monitored at 210, 250 and 280 nm.
We performed an in vitro assay over 20 h using 3 as the aldehyde substrate and either L-Thr, Glycine (Gly), or L-Serine (L-Ser) as the candidate amino acid. Since the TTA-ADH coupled assay is specific to L-Thr, we analyzed TTA activity via HPLC with a chemically synthesized β-OH-nsAA standard for the assumed product from 3.

Test [3] can be described thus: TTA-ADH coupled assay, substrate scope of TTAs on aromatic aldehydes. In kind it is biochemical. The note with it: for TTA activity with L-Thr and aldehydes 2, 10, 14: TTA-ADH coupled assay. As to the method: as §1
We specifically selected substrates with ring substituents with different electron withdrawing properties (1, 3, 6, 7, 8), substituent size (12), and aldehyde chain length (15) to compare the activity of the putative TTAs to ObiH. We were also encouraged by the activity of PbTTA and KaTTA on vanillin and protocatechualdehyde which are substrates that would form products like commercially available therapeutic, Droxidopa (FIG. 18).
To explore the possibility that DbTTA and TmTTA are TTAs active on other related aldehydes, we sought to examine their activity with L-Thr and aldehyde substrates with different ring substituent position (2), bulkier, hydrophobic chemistry (10), and aldehyde chain length (14) using the TTA-ADH coupled assay.

For `O=Cc1ccccc1[N+](=O)[O-]` [Aldehyde 3, 2-nitro-benzaldehyde], the “activity of ObiH on aldehyde substrate (initial rate, TTA-ADH coupled assay)” value (“activity of ObiH on aldehyde substrate” for short) in test [1] was “validated the activity”.

Regarding `O=Cc1ccc(C=O)cc1` [Aldehyde 7, terephthalaldehyde], the “activity of ObiH on aldehyde substrate” value in test [1] is reported as “activity”.

With `COc1ccc(C=O)cc1` [Aldehyde 9, 4-methoxybenzaldehyde], the “activity of ObiH on aldehyde substrate” value in test [1] was “some activity”.

`O=Cc1ccc(-c2ccccc2)cc1` [Aldehyde 10, 4-biphenylcarboxaldehyde]: the “activity of ObiH on aldehyde substrate” value in test [1] is on record as “some activity”.

In the case of `O=Cc1ccc2ccccc2c1` [Aldehyde 12, 2-napthalaldehyde], the “activity of ObiH on aldehyde substrate” value in test [1] was “some activity”.

For `O=Cc1ccc(B(O)O)cc1` [Aldehyde 13, 4-boronobenzaldehyde], the “activity of ObiH on aldehyde substrate” value in test [1] was “activity”.

With `O=CCc1ccc([N+](=O)[O-])cc1` [Aldehyde 15, 4-nitro-phenylacetaldehyde], the “activity of ObiH on aldehyde substrate” value in test [1] is “validated the activity”.

B1: StTTA: TTA, SEQ ID NO: 35, Streptomyces (multi-species), first 36 N-terminal amino acids removed (protein)
chain: GVWAGDRVAQVLERLASDFVLDNTYREQHLSLTASENYPSKLVRMLGAGLQGGFYEFAPPYPAEAGEWAFPDSGANASLVGKLTGIGRQLFEAATFDWRPNGGSVAEQAVLLGTCGRGDGFVHFAHKDGGHFALESLAGAAGVNTYHLPMVDRTLLIDVDRLATLCAEHPEIKLVILDQSFKLRWQPLAQIRAALPEGVFLAYDASHDGALIAGGVLPQPTLLGADAVHGNTHKTIAGPQKAYIAFRDAEHPKLRAVSDWVCPQMQSNSHAELIAPMYVALSEVALYGHAYARQILANAQALAHGLHEEGVRVSGESFGFTETHQVHVVTGSAADALRLSLGELAQAGIRTTNIEVPGANGLHGLRLGVQAMTRRGLREPQMREVARLVAKVVLRRAEPAAVRAEVADLLQHHPLDQLAYSFDSYVDSPAAARLLGEVFR
modifications: Streptomyces (multi-species)
For the molecule B1, in test [2], the “β-OH-nsAA product formation from 3 and L-Thr” value (shortened to “β-OH-nsAA product formation”) was “active”.

B2: SNTTA: putative TTA, SEQ ID NO: 38, Streptomyces sp. NRRL 30471 (protein)
chain: MTSSDDCAASRTAPVAGRAELLALLGEIEKEQRINEAAVNLVPSENRISPWAGAPLRTDFYNRYFFNDSLDPQGWQFRGGEGIGRLEKELALPALRRLGRADHVNIRPVSGMSAMLVVLLGLGGEPGDGVVCVDAETGGHYATGRQIAMLGRRPLPVRVVAGRVDLDALRTALTSCHVPLVYLDLQNSLWELDVAGVAEVIARTSPRTVLHVDCSHTLGLILGGSHKNPLDLGADTTGGSTHKTFPGPQKGVLFTRDENLSRKIRDAQFFTISSHHFAETLALALAAAEFEHFGAAYSRQVLINARAFAHRLRERGFGVVEGGPQLTDTHQVWVRLPLEESADAFSAQLASLGIRVNVQTELPDIPEPALRLGVSEITLNGGREPAMETLAEIFALVRAGEATKAVDLFQVLPHEMGEPYFFTGLPQEAGLFHG
modifications: Streptomyces sp. NRRL 30471
Consider B2, for which the “TTA activity on aromatic aldehydes” value in test [3] (purified with SUMO tag) is reported as “no TTA activity”.

B3: NoTTA: putative TTA, SEQ ID NO: 39, Nocardia otitidiscaviarum (protein, listed as Nocardia otitidiscaviarum)
chain: MNTFDILEQLARYEVGTSRRLHLIASENPLDSDTRVPYMLAGTLARYAFGEPGQPNWAWPGRETLIDLEADTAAALGALLGADHVNLRPTSGLSAMTVALSALAEHAGDRATVLSLAESDGGHGSTGFMARRFGLDWQRMPADPRTGVVDLDALARQARSARGPLVLYLDAFMARFPFDLTGIRGAVGDSALIHYDGSHPLGLIAGGRFQNPLAEGADSLGGSVHKTWPGPVGKGIIATNDSALASRFDTHAAGWISHHHPADLAALALSTAWMEQHAGDYATAVIANAVQLADELADGGLSICADDRGATASHQVWVDIAPICPAPVAAQRLYDAGIVVNAIAIPGLAEPGLRLGVQELTRWGLDRDGMTVLTWVLTQLLVHNAATAVVAPQMEALRTGLTLPEDRHGLEGFLRACDPQEVSVA
Turning to B3, the “β-OH-nsAA product formation” value in test [2] was “no product”.

B4: DbTTA: putative TTA, SEQ ID NO: 40, Deltaproteobacteria bacterium (protein, listed as Deltaproteobacteria bacterium)
chain: LTNNRELMDRIGYNLSQGLVSSQHTASLVALFIALHEARLTGKAFAKQVVENARTLASRLAALGVPVLARSDGQFTDNHHFFINLTGVASAPHQMERLLRAHLVVQRGMPFRNVDALRVGVQEVTRRGYGPGEMAQLAEWIASIVIGGADPEVVAPAVQAMAKRFDTIYYTGETVDGKLDLPEIAAPSAKGRWVDYRHLGNDFAMDDTEFSEIRALGAAAGAFPNQTDSTGNVSLRSGARVFVSSSGSYIKHLADGQVVELDAVDPSGELIDYHGAALPSSESLMHFLVYQNVPAGAVVHTHYLLTNQEAADFDVAVIAPQEYASIALARAVAEASKRSRIVYIQKHGLVFWGTDTADCLSQVHNFIHNRPNRRAAEAVYAS
On to B4, for which, in test [2], the “β-OH-nsAA product formation” value is given as “no product”. Further, the “TTA activity with L-Thr and aldehydes 2, 10, 14” value in test [3] is “Neither of these proteins appeared to have any TTA activity”.

B5: TmTTA: putative TTA, SEQ ID NO: 36, Thermocladium modestius (protein, listed as Thermocladium modestius)
chain: MREEEAIAALSKLRAIMDRHNNWRRRETINLIPSENVMSPLAEYFYLNDMMGRYAEGTIGKRYYQGVSLVDEAEQMLVDLMSSLFSSRFTDVRPISGTVANMAVYHSVAGLGEKIASLPTAAGGHISHNETGAPKAFGLRVSYLPWSQENFNVDVDAARRLIAEERPKLVLLGASLYLFPHPIKELADAAHEVGAVLMHDSAHVLGLIAGHQFPNPLELGADIMTSSTHKTFPGPQGGVIFTTREDLFKEIQRSVFPVMTSNYHLHRYASTIVTAIEMSTYGDEYAATVRSNAKALAEQLHANGLPVVAEEHGFTATHQVAMDVSKFGGGGPIAKALEDANIIVNKNMLPWDKSPVKPSGIRMGVQEMTRMGMGKGEMAAVAELIAKVVIKGVEPSKVKPEVVELRRGFTKVRYGFDLSTLGLNCPCLPLL
Regarding B5, in test [2], the “β-OH-nsAA product formation” value is reported as “no product”. Moreover, in test [3], the “TTA activity with L-Thr and aldehydes 2, 10, 14” value is “Neither of these proteins appeared to have any TTA activity”.
